Experimental data taken from patent US20140005216A1, “Nalmefene for reduction of alcohol consumption in specific target populations” (H. Lundbeck A/S, priority 2012, published 2014).
Entries after “also recorded” stand apart in the source; their conditions may differ.

Key:
[1] = test system: patients with alcohol dependence; assay: Study 12014A: randomised, double blind, placebo controlled 6 month efficacy study, reduction of alcohol consumption; assay type: in vivo, human; details: nalmefene 18 mg as-needed, MMRM
Protocol: (§1) The efficacy of nalmefene on the reduction of alcohol consumption in patients with alcohol dependence (DSM-IV) was evaluated in two efficacy studies (Study 12014A and Study 12023A). Both studies were randomised, double blind, two-parallel group, placebo controlled, and after 6 months of treatment, patients receiving nalmefene were re-randomised to receive either placebo or nalmefene in a 1 month run out period. The efficacy of nalmefene was also evaluated in a randomised, double blind, two parallel group, placebo controlled 1 year safety study (Study 12013A). The studies included 1941 patients, 1144 of whom were treated with nalmefene 18 mg in an as-needed dosing regimen.
(§2) The studies were conducted applying an outpatient setting without preceding detoxification. Higher CIWA withdrawal scores at Screening as well as a history of delirium tremens and seizures would be indicative for the necessity of prior inpatient detoxification. Patients with abuse of substance other than alcohol and subjects with significant depressive or psychotic co-morbidity were excluded.
(§3) The studies included outpatients, aged ≧18 years, with a primary diagnosis of alcohol dependence. A patient was eligible for participation in the study if, in the 4 weeks preceding the Screening Visit (Baseline period), he/she had >6 HDDs, at least a medium DRL (calculated as mean daily alcohol consumption in g/day i.e. >40 g/day for men and >20 g/day for women calculated as mean daily alcohol consumption over the 4 week period preceding the screening visit), and ≦14 consecutive abstinent days. The timeline followback (TLFB) method was used to obtain estimates of the patient's daily drinking.
(§4) The studies were conducted over a 34 week period (12 visits) in total and consisted of four sequential periods: a 2-week screening period, a 24-week double-blind treatment period, a 4-week double-blind placebo-controlled run-out in each of the treatment arms and finally a 4-week safety follow-up. One to two weeks after the Screening Visit the patients were randomised 1:1 to 24 weeks of as-needed, double-blind treatment (Main Treatment Period: MTP) with nalmefene (18 mg) or placebo. The patients who completed 24 weeks of double-blind treatment entered a 4-week, double-blind Run-out Period (ROP). The patients randomised to nalmefene were re-randomised 1:1 to receive nalmefene (18 mg, as-needed) or placebo and the patients randomised to placebo continued on placebo.
(§5) The Timeline Follow-back (TLFB) method was used to collect self-reported drinking data (alcohol consumption).
(§6) At the initial visit, the patients' clinical status, social situation, and alcohol consumption pattern were evaluated (based on patient reporting). After a 1- to 2-week observation period the drinking risk level was re-assessed (i.e. the […] daily alcohol consumption over the 1-2 week assessment period was calculated), and treatment with nalmefene was initiated together with counseling with focus on motivating the patients to adhere to the treatment and to change their drinking behavior. In all the studies, a motivational and adherence enhancing intervention, according to the BRENDA model, was administered to all the patients to support the patients in changing their behavior and to enhance adherence to treatment.
(§7) The patients' alcohol intake (g/day) was estimated based on national definitions of standard units (subsequently converted into grams of alcohol). To define the standard units, a standard drink conversion card was distributed to each patient at the Screening Visit. Each patient was also provided with a calendar that he/she could use to support his/her input to the TLFB, or he/she could use a personal calendar, if preferred. For all the variables derived from the TLFB data, baseline was defined as the month (that is 4 weeks/28 consecutive days) preceding the Screening Visit. The investigational medicinal product (IMP) was taken as-needed. […]

[2] = test system: alcohol dependence; details: 5, 20 and 40 mg daily doses; Anton et al. 2004; cited from earlier work
[3] = test system: patients with alcohol dependence; assay: Study 12023A: randomised, double blind, placebo controlled 6 month efficacy study, reduction of alcohol consumption; assay type: in vivo, human; details: nalmefene 18 mg as-needed, MMRM
Protocol: as §1, §2, §3, §4, §5, §6, §7

[4] = test system: alcohol dependence; details: 20 to 80 mg daily oral dosing; Mason et al. 1999; cited from earlier work
[5] = test system: patients with alcohol dependence; assay: Study 12013A: randomised, double blind, placebo controlled 1 year safety study, reduction of alcohol consumption; assay type: in vivo, human; details: nalmefene 18 mg as-needed, MMRM
Protocol: as §1, §2, §3, §5, §6
The patients' alcohol intake (g/day) was estimated based on national definitions of standard units (subsequently converted into grams of alcohol). To define the standard units, a standard drink conversion card was distributed to each patient at the Screening Visit. Each patient was also provided with a calendar that he/she could use to support his/her input to the TLFB, or he/she could use a personal calendar, if preferred. For all the variables derived from the TLFB data, baseline was defined as the month (that is 4 weeks/28 consecutive days) preceding the Screening Visit. The investigational medicinal product (IMP) was taken as-needed. Each patient was instructed to take a maximum of one tablet on each day the patient perceived a risk of drinking alcohol, preferably 1 to 2 hours prior to the anticipated time of drinking. If the patient had started drinking alcohol without taking nalmefene, the patient was to take one tablet as soon as possible. The dates when nalmefene was taken/not taken were recorded using the TLFB method. The chosen comparator was placebo
The efficacy of nalmefene was measured using two co-primary endpoints: the change in the monthly number of heavy drinking days (HDDs) and the change in the mean daily total alcohol consumption (TAC) per month (=28 days). A HDD was defined as a day with a consumption ≧60 g alcohol for men and ≧40 g for women. […]

[6] = test system: alcohol dependence; details: 20 mg taken when the patient experienced a craving for alcohol; Karhuvaara et al. 2007; cited from earlier work
[7] = test system: patients with alcohol dependence; assay: Three Lundbeck phase III studies (12014A, 12023A, 12013A) taken together, HDDs and TAC versus placebo; assay type: in vivo, human; details: for Effect on HDDs and TAC compared to placebo, relative to the total population: all three studies
Source text: The efficacy of nalmefene in the reduction of alcohol consumption in patients with alcohol dependence (DSM-IV) has been evaluated in two efficacy studies (Study 12014A and Study 12023A) and one safety study (Study 12013A) as described in the examples. All three studies were randomized, double blind, parallel-group and placebo-controlled.
as §3, with “aged” for “aged ≧18”
At the initial visit (screening visit), the patients' clinical status, social situation, and alcohol consumption pattern were evaluated. After a 1- to 2-week observation period the drinking risk level was re-assessed by calculating mean daily alcohol consumption in g/day over the 1- to 2-week observation period, and treatment with nalmefene was initiated together with counseling with focus on motivating the patients to adhere to the treatment and to change their drinking behavior.
The efficacy of nalmefene was measured using two co-primary endpoints: the change in the monthly number of heavy drinking days (HDDs) and the change in the mean daily total alcohol consumption (TAC) per month (=28 days).
The efficacy of nalmefene on the reduction of alcohol consumption in patients with alcohol dependence (DSM-IV) was evaluated in two efficacy studies (Study 12014A and Study 12023A). […] The efficacy of nalmefene was also evaluated in a randomised, double blind, two parallel group, placebo controlled 1 year safety study (Study 12013A). […]
as §3, with “The timeline followback (TLFB) method was used to obtain estimates of the patient's daily drinking.” left out
At the initial visit, the patients' clinical status, social situation, and alcohol consumption pattern were evaluated (based on patient reporting). […]

[8] = High DRL at baseline & randomisation

For `C=C1CC[C@@]2(O)[C@H]3Cc4ccc(O)c5c4[C@@]2(CCN3CC2CC2)[C@H]1O5` [nalmefene, 17-(cyclopropylmethyl)-4,5-alpha-epoxy-6-methylenemorphinan-3,14-dial], the “Mean difference to placebo in the change from baseline to month 6, HDD” value (from here on “Mean difference to placebo in the change … HDD”) [1, 8] was −3.7 days/month, the “Mean difference to placebo in the change from baseline to month 6, TAC” value (from here on “Mean difference to placebo in the change … TAC”) [1, 8] was -18.3 g/day and the “Mean difference to placebo in the change … HDD” value ([1]; High DRL at baseline) was −2.6 days/month. The “Mean difference to placebo in the change … TAC” value ([1]; High DRL at baseline) was -12.2 g/day, the “Mean difference to placebo in the change … HDD” value ([1]; Total excl. ERs) was −3.1 days/month and the “Mean difference to placebo in the change … TAC” value ([1]; Total excl. ERs) was -14.5 g/day. The “Mean difference to placebo in the change … HDD” value ([1]; Total population) was −2.3 days/month, the “Mean difference to placebo in the change … TAC” value ([1]; Total population) was -11.0 g/day and the “Superiority over placebo in the management of alcohol dependence” value [2] was “no evidence of superiority of nalmefene over placebo”. For the same compound, the “Mean difference to placebo in the change … HDD” value [3, 8] was −2.7 days/month, the “Mean difference to placebo in the change … TAC” value [3, 8] was -10.3 g/day and the “Mean difference to placebo in the change … HDD” value ([3]; High DRL at baseline) was −2.1 days/month. For the same compound, the “Mean difference to placebo in the change … TAC” value ([3]; High DRL at baseline) was -6.6 g/day, the “Mean difference to placebo in the change … HDD” value ([3]; Total excl. ERs) was −2.0 days/month and the “Mean difference to placebo in the change … TAC” value ([3]; Total excl. ERs) was -7.0 g/day. For the same compound, the “Mean difference to placebo in the change … HDD” value ([3]; Total population) was −1.7 days/month, the “Mean difference to placebo in the change … TAC” value ([3]; Total population) was -5.0 g/day and the “Effect in the management of alcohol dependence” value [4] was “good effect”. For the same compound, the “Mean difference to placebo in the change … HDD” value [5, 8] was −2.6 days/month, the “Mean difference to placebo in the change … TAC” value [5, 8] was -15.3 g/day and the “Mean difference to placebo in the change … HDD” value ([5]; High DRL at baseline) was −1.1 days/month. For the same compound, the “Mean difference to placebo in the change … TAC” value ([5]; High DRL at baseline) was -5.6 g/day, the “Mean difference to placebo in the change … HDD” value ([5]; Total excl. ERs) was −1.4 days/month and the “Mean difference to placebo in the change … TAC” value ([5]; Total excl. ERs) was -7.9 g/day. For the same compound, the “Mean difference to placebo in the change … HDD” value ([5]; Total population) was −0.9 days/month, the “Mean difference to placebo in the change … TAC” value ([5]; Total population) was -3.5 g/day and the “Effect over placebo in the management of alcohol dependence” value [6] was “good effect of nalmefene over placebo”. The “Reducing the number of HDDs and TAC versus placebo” value ([7]; month 6, total study population, two 6 month efficacy studies and 12 month safety study) was “superior to placebo”, the “Effect on HDDs and TAC compared to placebo, relative to the total population” value (from here on “Effect … relative to the total population”) ([7]; patients that were not ERs (total excluding Early Reducers)) was “more pronounced” and the “Effect … relative to the total population” value ([7]; patients with a high DRL at baseline) was “more pronounced”. The “Effect … relative to the total population” value ([7]; patients with a high DRL both at baseline and at randomisation) was “more pronounced; also recorded: even further pronounced”.
